The values below come from patent US20080064053A1, “Genotoxicity Testing” (priority 2003, published 2008).

Where two headings read alike, the source gives them in different places.

For series [1], the system named is RAD54 promoter-GFP reporter (pGen001). To be noted: for GSA genotoxicity result: GenT01 yeast, overnight at 25° C., 2% DMSO diluent, no S9.
Series [2] has as its system RNR3 regulatory element-GFP reporter. Briefly: RNR3-GFP reporter microplate assay (pGenRNR3). To be noted: yeast test strain transformed with pGenRNR3. Format: cell-based, Saccharomyces cerevisiae. An excerpt:
In addition to the RAD54 vectors described in the previous Examples, the inventors constructed an FF18984 reporter strain containing a replicative plasmid harbouring an RNR regulatory element. The vectors pGenRNR2 or pGenRNR3 are shown in FIGS. 24 and 25, respectively, and contain the upstream non-coding DNA sequence of the RNR2 gene or RNR3 gene fused to the yeast-enhanced Aequorea victoria GFP gene. A control FF18984 strain containing an identical plasmid except that 2 base pairs have been removed at the start of the GFP gene, such that no GFP is made, was also examined.
In order to test the brightness of the reporter for RNR3 constructs, similar methodology was used as for RAD54 constructs, as described in the previous Examples, but using instead pGENRNR3.

For series [3], the system named is yeast strain GenT01 (FF18984). Briefly: GreenScreen assay (GSA), cytotoxicity: final cell density by absorbance. To be noted: for Maximum Concentration (% v/v), suggested maximum tolerable solvent concentration: solvent in GSA test samples, toxic at higher concentrations. As for the experimental part:
The following standard protocol was followed. A 1 mM stock of the test chemical was prepared in 2% v/v aqueous DMSO, and used to make 2 identical dilution series across the microplate and a ‘control’ (see below). To achieve this, 150 microlitres of the test chemical solution were put into 2 microplate wells. Each sample was serially diluted by transferring 75 microlitres into 75 microlitres of 2% DMSO, mixing, and then taking 75 microlitres out and into the next well. This produced 9 serial dilutions of 75 microlitres each.
75 microlitres of the yeast suspension were added to each well of the diluted chemical: GenT01 to one series and GenC01 to the second, and to appropriate standards and controls. After the plates were filled, they were sealed using either a gas permeable membrane (Breath-easy, Diversified Biotech, USA) or a plastic lid, and then incubated without shaking, overnight at 25° C.
Following overnight incubation, fluorescence and absorbance data were collected from the microplates. […] Absorbance was measured through a 620 nm filter in both instruments. […] Fluorescence data were divided by absorbance data to give ‘brightness units’, the measure of average GFP induction per cell. […] In this way, one can distinguish between a small number of highly fluorescent cells and a large number of weakly fluorescent cells. In order to correct for induced cellular autofluorescence and intrinsic compound fluorescence, the brightness values for the GenC01 strain were subtracted from those of GenT01. This makes visual assessment of the data more reliable.
The cytotoxicity threshold is set at 80% of the cell density reached by the untreated control cells.
Table 12 lists chemicals/solvents that are often used with test samples, to promote dissolution etc. […] If these chemicals are used to dissolve compound stock solutions, they should also be included in the diluent used to make the compound dilution series. […] Interference of DMSO, a free radical scavenger, in the recombinogenic properties of several oxidising agents has previously been reported.

For series [4], the system named is bacteria. To be noted: cited from earlier work.
For series [5] the following is noted: in vivo; cited from earlier work.
Series [6] concerns SOS umuC. To be noted: cited from earlier work.
Series [7] relates to SOS lux. As to conditions: S9 −; cited from earlier work.
The conditions of series [8]: other genotoxicity tests and cancer studies; cited from earlier work.
Setting [9] is: requires S9 metabolic activation.

Take `CNNC` [1,2-dimethylhydrazine]: the GSA genotoxicity result in series [1] is “induced”. Moreover, the “fluorescence induction by the reporter” value in series [2] was “increases with increasing concentration”.
Consider `CC(O)CCl` (stereo not shown) [1-Chloro-2-propanol], for which, in series [3], the “Maximum Concentration (% v/v), suggested maximum tolerable solvent concentration” value (“Maximum Concentration (% v/v)” below) turned out to be 2 % v/v.
For the compound `CC(=O)Nc1ccc2c(c1)Cc1ccccc1-2` [2-acetamidofluorene], the GSA genotoxicity result in series [1] is given as “negative”.
For `Nc1cc([N+](=O)[O-])ccc1O` [2-amino-4-nitrophenol], the GSA genotoxicity result in series [1] is “positive”. For the same compound, the Ames test result in series [4] (setting [9]) was “positive”.
For `Nc1ccc2cc3ccccc3cc2c1` [2-aminoanthracene], in series [1], the GSA genotoxicity result is “negative”.
In the case of `Nc1nc[nH]n1` [3-amino-1,2,4-triazole], in series [1], the GSA genotoxicity result is given as “positive”. Moreover, the “cancer data / carcinogenicity” value in series [5] is reported as “positive”.
Take `Nc1ccc(Oc2ccc(N)cc2)cc1` [4,4-oxydianiline]: in series [1], the GSA genotoxicity result is given as “negative”.
The same measure, in the same setting: as for `Nc1c2ccccc2nc2ccccc12` [9-aminoacridine], the entry is “negative”; as for `c1ccc2c(c1)cc1ccc3cccc4ccc2c1c34` [BENZO[A]PYRENE, benzo[a]pyrene], “positive”.
As to `O=Cc1ccccc1` [Benzaldehyde], the GSA cytotoxicity result in series [3] (GenT01 yeast, overnight at 25° C.) is “cytotoxic”.
Regarding `N.N.[Cl][Pt][Cl]` [CISPLATIN, cisplatin], in series [1] (S9 −), the “GSA (M), lowest effective concentration (LEC)” value (shortened to “GSA (M)”) turned out to be 6.2e-05 M. Besides, the “SOS UMUC ASSAY (M), LEC” value in series [6] (S9 −) is 9e-07 M.
As for `ClC(Cl)(Cl)Cl` [Carbon tetrachloride], the “Maximum Concentration (% v/v)” value in series [3] is given as 2 % v/v.
On the same count and under the same terms, as for `C[S+](C)[O-]` [Dimethylsulfoxide], the figure is 5 % v/v.
`CCOS(C)(=O)=O` [EMS, Ethyl methanesulfonate]: the “fluorescence induction by the reporter” value in series [2] was “increases with increasing concentration”.
Take `CCO` [Ethanol]: in series [3], the “Maximum Concentration (% v/v)” value amounted to 2 % v/v.
In the case of `OO` [HYDROGEN PEROXIDE], the “GSA (M)” value in series [1] (Saccharomyces cerevisiae) worked out at 0.002 M. In series [7], the “SOS LUX ASSAY (M), LEC” value is 5.9e-05 M.
Consider `CO[C@@]12[C@H](COC(N)=O)C3=C(C(=O)C(C)=C(N)C3=O)N1C[C@@H]1N[C@@H]12` [MITOMYCIN C, mitomycin C], for which the “SOS LUX ASSAY (M), LEC” value in series [7] was 4.7e-08 M. For the same compound, the “SOS UMUC ASSAY (M), LEC” value in series [6] (S9 −) is 1e-08 M.
Consider `CO` [Methanol], for which, in series [3], the “Maximum Concentration (% v/v)” value amounted to 2 % v/v.
For `CCn1cc(C(=O)O)c(=O)c2ccc(C)nc21` [NALIDIXIC ACID], the “GSA (M)” value in series [1] (S9 −) was found to be 1.6e-06 M.
Take `Cc1cc2nc3ccc(N(C)C)cc3nc2cc1N.Cl` [Neutral Red]: the GSA genotoxicity result in series [1] is on record as “positive”. Besides, in series [4], the Ames test result is given as “positive”.
As to `[N-]=[N+]=[N-]` [SODIUM AZIDE], the “GSA (M)” value in series [1] (Saccharomyces cerevisiae) was found to be 1e-05 M. Also, the “SOS UMUC ASSAY (M), LEC” value in series [6] is 0.0054 M.
`C1CCOC1` [Tetrahydrofuran]: the “Maximum Concentration (% v/v)” value in series [3] was 2 % v/v.
With `Nc1ccccc1` [aniline], the GSA genotoxicity result in series [1] was “negative”. Further, the “cancer data / carcinogenicity” value in series [5] is “carcinogens”. The Ames test result was “not detectable” in series [4]; “negative” in series [4] (with and without S9).
Turning to `CN/C(=N/CCSCc1nc[nH]c1C)NC#N` [cimetidine], the GSA genotoxicity result in series [1] is on record as “positive”. In addition, the “corresponding data from other tests” value in series [8] is recorded as “no corresponding positive data”.
Take `COc1cc2c(c(OC)c1OC)-c1ccc(OC)c(=O)cc1[C@@H](NC(C)=O)CC2` [colchicine]: in series [1], the GSA genotoxicity result is “responds”.
On the same count and under the same terms, as for `Clc1ccc(COC(Cn2ccnc2)c2ccc(Cl)cc2Cl)cc1` (stereo not shown) [econazole], the entry is “responds”; as for `Cc1c2ccncc2c(C)c2c1[nH]c1ccccc12` [ellipticine], “responds”.
On to `CC[n+]1c(-c2ccccc2)c2cc(N)ccc2c2ccc(N)cc21` [ethidium bromide], for which the Ames test result in series [4] (setting [9]) is “positive”.
Consider `COc1cc([C@@H]2c3cc4c(cc3[C@@H](O[C@@H]3O[C@@H]5CO[C@@H](C)O[C@H]5[C@H](O)[C@H]3O)[C@H]3COC(=O)[C@H]23)OCO4)cc(OC)c1O` [etoposide], for which the GSA genotoxicity result in series [1] was “responds”.
Still for that read-out and setting: the result for `CN(C)CCN(Cc1cccs1)c1ccccn1` [methapyraline] reads “induced”; that for `C[n+]1ccc(-c2cc[n+](C)cc2)cc1` [methyl viologen], “induced”; that for `CCCCC(CC)COC(=O)c1ccccc1C(=O)OCC(CC)CCCC` (stereo not shown) [phthalic acid bis(2-ethylhexyl) ester], “induced”.
For the compound `C=CCc1ccc2c(c1)OCO2` [safrole], in series [5], the “cancer data / carcinogenicity” value is given as “carcinogens”. Moreover, the Ames test result in series [4] is listed as “not detectable”.
For `NC(N)=S` [thiourea], the “cancer data / carcinogenicity” value in series [5] is “carcinogens”. Further, the Ames test result in series [4] was “not detectable”.
Turning to `CCOC(N)=O` [urethane], in series [5], the “cancer data / carcinogenicity” value is reported as “carcinogens”. Besides, in series [4], the Ames test result is reported as “not detectable”.
Turning to bleomycin, in series [1], the GSA genotoxicity result is reported as “induced”.
Still for that read-out and setting: the result for phleomycin reads “induced”.
Regarding proflavin hemisulfate, the GSA genotoxicity result in series [1] was “positive”. In series [4] (setting [9]), the Ames test result is on record as “positive”.
On to tritolyl phosphate, for which, in series [8], the “corresponding data from other tests” value is “no corresponding positive data”.
